{"source": "paper PMC5390258", "about": "“CMD-05, a novel promising clinical anti-diabetic drug candidate, in vivo and vitro studies” (Scientific Reports, 2017)", "key": {"[1]": {"test_system": "model rats (HFD/low-dose STZ, T2DM)", "test": "Oral glucose tolerance test (OGTT) in HFD/STZ T2DM model rats", "format": "in vivo, rat", "settings": "for percentage reduction of blood glucose levels in OGTT: model rats", "procedure": "(§1) To establish model of T2DM, male rats (80–100 g, 9-week-old)[49] were fed high fat diet (HFD) (20% sugar, 10% lard, 10% egg yolk and 60% basal feed) after a week of normal diet. After 4 weeks, rats were injected once with low-dose streptozotocin (Solarbio, China) (STZ, 30 mg/kg i.p) to induce partial insulin deficiency, and then continuously fed HFD for 4 weeks after injection of STZ. Then the model rats were oral administrated drugs for 30 days. The body weights were recorded once a week.\nOn the 1st day, 19th days and 29th days of treatment, oral glucose tolerance tests for model rats were carried out. […] The blood glucose levels were tested using Johnson one touch Ultra Test Strips on Johnson Performa blood glucose meter."}, "plasma DPP-IV [2]": {"target": "T1, plasma DPP-IV (Rattus norvegicus, UniProt P14740)", "T1 construct": "from tissue; host or cells: plasma of Sprague-Dawley rats", "T1 sequence (P14740 whole entry)": "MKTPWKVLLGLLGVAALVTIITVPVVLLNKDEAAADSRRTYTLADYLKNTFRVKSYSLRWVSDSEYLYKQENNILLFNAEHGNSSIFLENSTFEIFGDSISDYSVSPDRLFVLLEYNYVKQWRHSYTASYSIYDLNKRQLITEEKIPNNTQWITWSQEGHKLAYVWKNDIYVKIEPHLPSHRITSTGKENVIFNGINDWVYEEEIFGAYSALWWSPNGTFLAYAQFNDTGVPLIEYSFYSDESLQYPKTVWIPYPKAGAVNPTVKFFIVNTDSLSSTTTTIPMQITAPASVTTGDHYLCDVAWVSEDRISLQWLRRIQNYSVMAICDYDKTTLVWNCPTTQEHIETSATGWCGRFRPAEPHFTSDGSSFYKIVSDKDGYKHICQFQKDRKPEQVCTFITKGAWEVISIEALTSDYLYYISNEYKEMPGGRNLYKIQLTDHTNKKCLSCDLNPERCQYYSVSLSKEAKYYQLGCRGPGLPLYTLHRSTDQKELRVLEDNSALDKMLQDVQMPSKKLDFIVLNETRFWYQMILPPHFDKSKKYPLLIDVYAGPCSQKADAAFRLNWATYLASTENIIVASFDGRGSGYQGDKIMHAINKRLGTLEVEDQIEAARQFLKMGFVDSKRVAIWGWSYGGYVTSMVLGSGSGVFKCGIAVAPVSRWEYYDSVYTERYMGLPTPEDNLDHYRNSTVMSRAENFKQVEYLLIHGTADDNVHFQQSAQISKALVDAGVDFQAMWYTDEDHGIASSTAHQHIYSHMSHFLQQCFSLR", "test": "Plasma DPP-IV activity determination in model rats", "format": "in vivo"}, "insulin": {"test_system": "insulin", "test": "Plasma insulin levels in model rats (ELISA)", "format": "in vivo, rat", "settings": "1.5 and 4.5 mg/kg, fasted, glucose load and random plasma", "procedure": "as §1\n(§2) Oral glucose load, fasted and random blood samples were collected from rats on the 28th days, the 29th days and the last of the treatment of drugs, respectively. Plasma levels of insulin and GLP-1 were measured by ELISA kits (YuanYe, China) according to the manufacturer’s recommendation. The levels of HbA1c, Triglycerides (TG), total cholesterol (TC) and low density lipoprotein cholesterol (LDL-C) in blood samples were measured by commercial assay kits (JianCheng, Nanjing, China) according to the manufacturer’s directions."}, "HbA1c": {"test_system": "HbA1c", "test": "HbA1c level in blood of model rats", "format": "in vivo, rat", "settings": "30 days", "procedure": "as §1, §2"}, "pancreatic islets": {"test_system": "pancreatic islets", "test": "Morphologic observation on islet of model rats (HE, immunofluorescence, TEM)", "format": "in vivo, rat", "procedure": "HE staining on paraffin section was performed as described in reports. In brief, paraffin section were rinsed with PBS, fixed with 4% paraformaldehyde (PFA) for 30 min and then washed by PBS. The pancreas tissue were stained with Hematoxylin-Eosin, afterwards, they were dehydrated in alcohols. Morphological changes of the pancreas tissue were observed under an optical microscope (Olympus, Japan) after mounted by neutral resins.\nPancreas sections (8 μm) were cut in a cryostat and collected on superfrost microscope slides. The slides were stored at −20 °C till analysis. Immunofluorescent staining was used for detection of insulin (β cells) (1:100, Anti-Insulin antibody, Abcam), glucagon (α cells) (1:200, Anti-glucagon, Abcam). Briefly, the slides were blocked in 5% normal goat serum for 1 h in a humidified chamber. Slides were exposed to primary antibodies at a dilution of […] in antibody diluting solution at 4 °C overnight, washed in PBS, and exposed to appropriate secondary antibodies linked to the fluorescent probes (Goat Anti-Guinea pig IgG/FITC and Alexa Fluor 594-conjugated Goat Anti-Rabbit IgG) (Bioss and Proteintech, China) in antibody diluting solution for 1 h and DAPI (Beyotime, China) for 5 min in the dark. After washed by PBS, slides were mounted with a glycerol mounting medium. Images were collected using a fluorescent microscope (Nikon, Japan).\nFor transmission electron microscopy, about 1 mm^3 tissue specimens were obtained from the same pancreas region of the control and experimental groups of rats, and fixed overnight in 2% glutaraldehyde (pH7.3) in 0.1 M phosphate buffer saline at 4 °C. Images of pancreatic islets were captured from random tissue sections using a transmission electron microscope."}, "INS-1 cells": {"test_system": "INS-1 cells", "test": "Apoptosis of INS-1 cells induced by STZ (Annexin V/PI flow cytometry)", "format": "cell-based, rat", "settings": "STZ-induced, 1, 10, 100 μM, 36 h, concentration dependent", "procedure": "The INS cells were seeded into 6-well culture plates at 3 × 10^4 cells per ml and incubated at 37 °C for 24 h. […] After incubated for 36 h, apoptosis was assessed by flow cytometry using the Annexin V-FITC/ propidium iodide (Annexin V/PI) apoptosis detection kit according to the manufacturer’s protocol."}, "NCI-H716 cells": {"test_system": "NCI-H716 cells", "test": "GLP-1 secretion in NCI-H716 cells", "format": "cell-based, human", "settings": "100 μM, 2 h; solvent group 6.6 ± 0.14 pmol/L", "procedure": "Human enteroendocrine NCI-H716 cells were maintained in suspension culture as described by the American Type Culture Collection guideline (ATCC). Two days before the experiments, cells were seeded into 12-well culture plates coated with Matrigel at 1 × 10^6 cells per well. Cells were incubated in RPMI 1640 containing 10% FBS at 37 °C for 48 h. […] After incubated for 2 h, GLP-1 concentrations from the supernatants were measured by ELISA kits (YuanYe, China)."}, "plasma DPP-IV [3]": {"target": "T1, plasma DPP-IV", "test": "Plasma DPP-IV activity after single oral dose in fasting normal rats", "format": "in vivo", "settings": "single oral 4.5 mg/kg", "procedure": "Oral glucose load, fasted and random blood samples was collected to measure DPP-IV activity at the 28th days, the 29th days and the last treatment of the CMD-05. DPP-IV enzyme assay was carried out according to a published method. The enzyme reaction was initiated by adding 5 mM Gly-Pro-AMC as a substrate. After 25 min of incubation, fluorescence of AMC released by the reaction was measured using a spectrofluorometer at an excitation wavelength of 353 nm and emission wavelength of 442 nm.\nBlood samples were collected after administration of CMD-05 (4.5 mg/kg) at 15 min, 30 min, 1 h, 2 h, 4 h, 12 h, and 24 h to measure the DPP-IV activity in fasting normal rats, the concrete steps refer to the preceding."}, "HT22 cells": {"test_system": "HT22 cells", "test": "Cytotoxicity in HT22 cells (CCK-8)", "format": "cell-based", "settings": "3 × 10^−6 to 3 × 10^−5 M, 12 h", "procedure": "(§3) The toxicities of CMD-05 on HT22, 293 and […] cell lines was assessed using Cell Counting Kit-8 (CCK-8) (Biosharp, China). Briefly, the cells were plated on 96-well plates. […] The absorbance at 450 nm was measured using a microplate spectrophotometer."}, "LO-2 cells": {"test_system": "LO-2 cells", "test": "Cytotoxicity in LO-2 cells (CCK-8)", "format": "cell-based", "settings": "1 × 10^−4 M, 12 h", "procedure": "as §3"}, "[4]": {"settings": "fasted plasma, read-out: plasma DPP-IV inhibition rate"}, "[5]": {"settings": "glucose load plasma, read-out: plasma DPP-IV inhibition"}, "[6]": {"settings": "random plasma, read-out: plasma DPP-IV inhibition"}}, "note": "Like-named read-outs stand apart in the source and are kept apart here.", "data": [{"compound": "N#C[C@@H]1CCCN1C(=O)CN(C(=O)CCCCCl)C12CC3CC(CC(O)(C3)C1)C2", "note": "[CMD-05]", "values": [{"measurement": "percentage reduction of blood glucose levels in OGTT", "setting": "[1]; 1.5 mg/kg oral, 1st day", "result": 8.0, "unit": "%"}, {"measurement": "percentage reduction of blood glucose levels in OGTT", "setting": "[1]; 1.5 mg/kg oral, 19th day", "result": 9.22, "unit": "%"}, {"measurement": "percentage reduction of blood glucose levels in OGTT", "setting": "[1]; 1.5 mg/kg oral, 29th day", "result": 17.8, "unit": "%"}, {"measurement": "percentage reduction of blood glucose levels in OGTT", "setting": "[1]; 4.5 mg/kg oral, 1st day", "result": 9.7, "unit": "%"}, {"measurement": "percentage reduction of blood glucose levels in OGTT", "setting": "[1]; 4.5 mg/kg oral, 19th day", "result": 12.2, "unit": "%"}, {"measurement": "percentage reduction of blood glucose levels in OGTT", "setting": "[1]; 4.5 mg/kg oral, 29th day", "result": 21.9, "unit": "%"}, {"measurement": "AUC (area under the blood glucose curve) in OGTT", "setting": "[1]; 1st, 19th and 29th day, vs model group", "result": "significant decrease"}, {"measurement": "inhibition at 0.5 mg/kg", "setting": "plasma DPP-IV [2]; [4]", "result": "~20", "unit": "%"}, {"measurement": "inhibition at 1.5 mg/kg", "setting": "plasma DPP-IV [2]; [4]", "result": "~30", "unit": "%"}, {"measurement": "inhibition at 4.5 mg/kg", "setting": "plasma DPP-IV [2]; [4]", "result": "~50", "unit": "%"}, {"measurement": "inhibition at 0.5 mg/kg", "setting": "plasma DPP-IV [2]; [5]", "result": "~10", "unit": "%"}, {"measurement": "inhibition at 1.5 mg/kg", "setting": "plasma DPP-IV [2]; [5]", "result": "~20", "unit": "%"}, {"measurement": "inhibition at 4.5 mg/kg", "setting": "plasma DPP-IV [2]; [5]", "result": "~70", "unit": "%"}, {"measurement": "inhibition at 0.5 mg/kg", "setting": "plasma DPP-IV [2]; [6]", "result": "~20", "unit": "%"}, {"measurement": "inhibition at 1.5 mg/kg", "setting": "plasma DPP-IV [2]; [6]", "result": "~30", "unit": "%"}, {"measurement": "inhibition at 4.5 mg/kg", "setting": "plasma DPP-IV [2]; [6]", "result": "~55", "unit": "%"}, {"measurement": "insulin levels in plasma", "setting": "insulin", "result": "significantly increased"}, {"measurement": "reduction of the level of HbA1c", "setting": "HbA1c; 1.5 mg/kg", "result": 1.0, "unit": "%"}, {"measurement": "reduction of the level of HbA1c", "setting": "HbA1c; 4.5 mg/kg", "result": 2.2, "unit": "%"}, {"measurement": "distribution of β cells (insulin/glucagon double staining)", "setting": "pancreatic islets; 30 days treatment", "result": "obviously improved"}, {"measurement": "mass of α-cells (insulin/glucagon double staining)", "setting": "pancreatic islets; 30 days treatment", "result": "mildly reduced"}, {"measurement": "morphology of pancreatic islets (HE staining)", "setting": "pancreatic islets; 30 days treatment", "result": "prevent islet from damage"}, {"measurement": "secretory granules in β cells (transmission electron microscopy)", "setting": "pancreatic islets; compared with the model", "result": "obviously increased"}, {"measurement": "apoptosis of INS-1 cells", "setting": "INS-1 cells", "result": "reduce of apoptosis"}, {"measurement": "GLP-1 secretion", "setting": "NCI-H716 cells", "result": "7.5 ± 0.44", "unit": "pmol/L"}, {"measurement": "inhibition at 4.5 mg/kg", "setting": "plasma DPP-IV [3]; rat, at 4 hours after the dose, read-out: maximum inhibition of plasma DPP-IV activity", "result": "~90", "unit": "%"}, {"measurement": "duration of plasma DPP-IV inhibition greater than 50%", "setting": "plasma DPP-IV [3]", "result": "at least 15 hours"}, {"measurement": "time of maximum inhibition of plasma DPP-IV activity", "setting": "plasma DPP-IV [3]", "result": 4, "unit": "h"}, {"measurement": "cytotoxicity (cell viability)", "setting": "HT22 cells", "result": "did not induce significant cytotoxicity"}, {"measurement": "cytotoxicity (cell viability)", "setting": "LO-2 cells", "result": "no detectable toxic effect"}]}]}
